This is an account of results in US20180027813A1, “Use of an agent to control resistant rodents” (priority 2015, published 2018).

Assay [1] has as its system brown rat (Rattus norvegicus) strain L120Q Hampshire. Conditions: BCR resistance test; cited from earlier work.
Assay [2] concerns brown rat VKORC1 strain Y139S. Details: key to Practical resistance of the strain: X = Strain exhibits a practical resistance to:
As to conditions: cited from earlier work; for Tolerance / practical resistance (in words): strain Y139S (Wales); for Practical resistance of the strain: strain Y139S.

The subject of assay [3] is brown rat VKORC1 strain Y139F. Details: key: X = Strain exhibits a practical resistance to:
As to conditions: cited from earlier work.

The test system of assay [4] is brown rat (Rattus norvegicus) strain Y139C. Conditions: BCR resistance test; cited from earlier work.
Assay [5] relates to brown rat (Rattus norvegicus) strain Y139S. As to conditions: determined on the basis of LD50; cited from earlier work.
In assay [6] the test system is brown rat VKORC1 strain Y139C. Further details: key to Practical resistance of the strain: X = Strain exhibits a practical resistance to:
Conditions: cited from earlier work; for Sensitivity of animals with VKORC1 Tyr139Cys (in words): Y139C brown rats and house mice, difenacoum in rats only; for Practical resistance of the strain / Resistance in laboratory and field experiments (in words): strain Y139C.

Assay [7] concerns brown rat (Rattus norvegicus) strain Y139F. Conditions: BCR resistance test; cited from earlier work.
The subject of assay [8] is resistant rat strain "Westphalia" (VKORC1 Y139C). The assay is described as follows: Laboratory feeding tests with single anticoagulants. Format: in vivo. As to conditions: feed baits with one active ingredient. The text has this: The resistant rat strain “Westphalia”, characterized by the VKORC1 polymorphism Y139C, is resistant to the second-generation anticoagulants bromadiolone and difenacoum, and also to the first-generation active ingredients. Feed baits containing one of these active ingredients in the authorized concentration are not effective against animals of this strain.

For assay [9], the system named is brown rat VKORC1 strain L128Q. Further details: key: X = Strain exhibits a practical resistance to:
Conditions: cited from earlier work.

Assay [10] has as its system brown rat VKORC1 strain L120Q Berkshire. Further details: key: X = Strain exhibits a practical resistance to:
Conditions: cited from earlier work.

The subject of assay [11] is brown rats of the resistant strain Y139C. Briefly: Feeding experiment with brown rats of the resistant strain Y139C (Example 1). Format: in vivo, brown rat. Conditions: for Mortality (in words): resistant rats. The protocol: A cholecalciferol concentration of 100 mg/kg is enough to make it possible to achieve mortality rates of up to 100% (see the examples).
[…] received feed baits, as described below, over a period of 4 days. Consumption and mortality were determined afterwards. One group (6 rats, Group 1) was fed a feed bait consisting of coumatetralyl (375 mg/kg) and cholecalciferol (100 mg/kg). The other group (Group 2) was fed coumatetralyl on its own (375 mg/kg). All animals consumed the feed baits except for one animal from Group 2. Consumption was highest during the first 24 hours. On the third and fourth day, there was only little consumption. […] Two males each consumed approximately 47 mg/kg coumatetralyl and 12.5 mg/kg cholecalciferol (based on the body weight). The females consumed from 50 to 79 mg/kg coumatetralyl and from 13 to 21 mg/kg cholecalciferol (based in each case on the body weight). In Group 2, no mortality was observed, although the animals consumed 94 mg/kg coumatetralyl (mean value based on the body weight).

Assay [12] relates to rats caught on the farm (strain Y139C area). Briefly: Blood coagulation test with coumatetralyl on rats caught on the farm. Conditions: blood coagulation test before control. It is filed as in vivo, rat. The text has this:
The term “resistance(s)” in the context of the invention refers to “practical resistance”, characterized in that the rodenticide in question no longer achieves sufficient biological efficacy even with proper use and good acceptance of the bait by the rodents (see also Greaves—1994, Buckle A. P. and Smith R. H. eds. “Rodent Pests and their Control”, CABI, Wallingford, Oxon, UK, pages 197-217). A person skilled in the art can make a clear and unambiguous assessment in accordance with this definition as to whether a practical resistance is present or not. In general, the degree of “resistance” can be described by specifying a resistance factor. The resistance factor (RF) is usually calculated on the basis of the lethal dose (LD50) or of the effective dose (ED50). […] LD50 and ED50 are each determined experimentally for each strain. […] Until the 1980s, RFs were determined on the basis of the LD50. This method was later replaced by blood coagulation tests (BCR resistance tests), by means of which the ED50 can be determined more accurately (Prescott et al. 2007: A standardised BCR-resistance test for all anticoagulant rodenticides. Int. J. Pest Mgt. 53 (4), 265-272). Therefore, it is preferred according to the invention that RF be calculated via the quotient formed from the ED50 of the resistant strain and of a sensitive strain considered to be the reference. […]

With `O=c1oc2ccccc2c(O)c1C(CC(O)c1ccc(-c2ccc(Br)cc2)cc1)c1ccccc1` (stereo not drawn) [bromadiolone], the “Resistance factor (RF) for bromadiolone” value in assay [1] is recorded as 10-14; in assay [4], 15-17; in assay [5], 2.7-6.9; in assay [7], 7-9. In [2], the “Tolerance / practical resistance (in words)” value is on record as “no practical resistance”. Besides, the “Practical resistance of the strain” value in [3], in assay [6], in assay [9] and in [10] was “X” throughout. Besides, in assay [6], the “Sensitivity of animals with VKORC1 Tyr139Cys (in words)” value (from here on “Sensitivity of animals”) is “virtually completely insensitive”. Also, the “Resistance in laboratory and field experiments (in words)” value in assay [6] is “resistant”. Moreover, the Mortality entry in assay [8] is listed as “no mortality”.
For `O=C1c2ccccc2C(=O)C1C(=O)C(c1ccccc1)c1ccc(Cl)cc1` (stereo not drawn) [chlorophacinone, (1′-p-chlorophenyl-1′-phenyl)-2-acetylindane-1,3-dione], the “Practical resistance of the strain” value in assay [2], in assay [3], in assay [6], in assay [9] and in [10] was “X” each time.
Regarding `C=C1CC[C@H](O)C/C1=C/C=C1\CCC[C@]2(C)[C@@H]([C@H](C)CCCC(C)C)CC[C@@H]12` [cholecalciferol], in assay [11] (cholecalciferol by itself at 100 mg/kg), the “Mortality (in words)” value is “does not cause mortality”.
For `O=c1oc2ccccc2c(O)c1C1CCCc2ccccc21` (stereo not drawn) [coumatetralyl, 3-(1′,2′,3′,4′-tetrahydro-1′-naphthyl)-4-hydroxycoumarin], the “Practical resistance of the strain” value in assay [2], in assay [3], in assay [6], in assay [9] and in [10] was “X” throughout. Moreover, the “Sensitivity of animals” value in assay [6] is reported as “virtually completely insensitive”. Further, in [11] (coumatetralyl by itself), the “Mortality (in words)” value was “does not cause mortality”. In addition, the Mortality result is recorded as “no mortality” in assay [11] (feed baits over 4 days, 6 rats of strain Y139C per group) and “no mortality” in assay [8]. The “Share of rats on the farm resistant for coumatetralyl” value in [12] is on record as “approximately 46%”.
Regarding `O=c1oc2ccccc2c(O)c1C1CC(c2ccc(-c3ccccc3)cc2)Cc2ccccc21` (stereo not drawn) [difenacoum, 3-(3′-paradiphenylyl-1′,2′,3′,4′-tetrahydro-1′-naphthyl)-4-hydroxycoumarin], in assay [6], the “Sensitivity of animals” value is on record as “virtually completely insensitive”; the “Practical resistance of the strain” value is reported as “X”; the “Resistance in laboratory and field experiments (in words)” value was “resistant”. In assay [10], the “Practical resistance of the strain” value is “X”.
Regarding `CC(=O)CC(c1ccccc1)c1c(O)c2ccccc2oc1=O` (stereo not drawn) [warfarin, (1-phenyl-2-acetyl)-3-ethyl-4-hydroxycoumarin], the “Tolerance / practical resistance (in words)” value in assay [2] is listed as “somewhat more tolerant”. Further, the “Practical resistance of the strain” value in assay [2], in [3], in assay [6], in [9] and in assay [10] was “X” throughout. In addition, the “Sensitivity of animals” value in assay [6] was “virtually completely insensitive”.
